The supplement of paper PMC10307832

Legend:
Experiment in all cases: relative viability (nuclei count vs DMSO), 5 days (fraction); higher = more cells survive
XMD14-99 + Lapatinib = compound: CN1CCN(CC1)C2=CC(=C(C=C2)NC3=NC(=C(S3)C(=O)C4=C(C=CC=C4Cl)Cl)N)OC [XMD14-99] + CS(=O)(=O)CCNCc1ccc(-c2ccc3ncnc(Nc4ccc(OCc5cccc(F)c5)c(Cl)c4)c3c2)o1 [Lapatinib] (partner 2 µM)
How it was run: (§1)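 Relative viability equals treated-well nuclei counts divided by vehicle-well nuclei counts. Counts came from 4× images of lung cancer cell lines grown in 1536-well plates for 5 days after pin-tool dosing on the day after seeding. Dosing used one drug alone or a fixed anchor-drug dose plus five library-drug doses (not always all listed) in √10 steps, and values are medians of duplicate plates.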

AZD1208 + Crizotinib = compound: N[C@@H]1CCCN(c2c(/C=C3\SC(=O)NC3=O)cccc2-c2ccccc2)C1 [AZD1208] + C[C@@H](Oc1cc(-c2cnn(C3CCNCC3)c2)cnc1N)c1c(Cl)ccc(F)c1Cl [Crizotinib] (partner 1 µM)
How it was run: as §1

AZD1208 + Decitabine = compound: N[C@@H]1CCCN(c2c(/C=C3\SC(=O)NC3=O)cccc2-c2ccccc2)C1 [AZD1208] + Nc1ncn([C@H]2C[C@H](O)[C@@H](CO)O2)c(=O)n1 [Decitabine] (partner 2 µM)
How it was run: as §1

AZD1208 + Olaparib = compound: N[C@@H]1CCCN(c2c(/C=C3\SC(=O)NC3=O)cccc2-c2ccccc2)C1 [AZD1208] + O=C(c1cc(Cc2n[nH]c(=O)c3ccccc23)ccc1F)N1CCN(C(=O)C2CC2)CC1 [Olaparib] (partner 8 µM)
How it was run: as §1

Cell Line | relative viability (XMD14-99 + Lapatinib; first compound 0.08 µM) | relative viability (XMD14-99 + Lapatinib; first compound 0.8 µM) | relative viability (XMD14-99 + Lapatinib; first compound 2.53 µM) | relative viability (XMD14-99 + Lapatinib; first compound 8 µM) | relative viability (AZD1208 + Crizotinib; first compound 0.08 µM) | relative viability (AZD1208 + Crizotinib; first compound 0.253 µM) | relative viability (AZD1208 + Crizotinib; first compound 0.8 µM) | relative viability (AZD1208 + Crizotinib; first compound 2.53 µM) | relative viability (AZD1208 + Crizotinib; first compound 8 µM) | relative viability (AZD1208 + Decitabine; first compound 0.08 µM) | relative viability (AZD1208 + Decitabine; first compound 0.253 µM) | relative viability (AZD1208 + Decitabine; first compound 0.8 µM) | relative viability (AZD1208 + Decitabine; first compound 2.53 µM) | relative viability (AZD1208 + Decitabine; first compound 8 µM) | relative viability (AZD1208 + Olaparib; first compound 0.08 µM) | relative viability (AZD1208 + Olaparib; first compound 0.253 µM) | relative viability (AZD1208 + Olaparib; first compound 0.8 µM) | relative viability (AZD1208 + Olaparib; first compound 2.53 µM) | relative viability (AZD1208 + Olaparib; first compound 8 µM)
NCI-H1666 | 0.741 | 0.582 | 0.721 | 0.399 | 1.06 | 0.934 | 0.837 | 0.905 | 1.03 | 0.735 | 0.713 | 0.635 | 0.743 | 0.629 | 0.762 | 0.766 | 0.673 | 0.693 | 0.768
NCI-H1734 | 1.01 | 0.997 | 1.05 | 0.825 | 0.683 | 0.649 | 0.504 | 0.528 | 0.464 | 0.534 | 0.466 | 0.44 | 0.424 | 0.409 | 0.679 | 0.575 | 0.554 | 0.544 | 0.449
NCI-H1755 | 1.08 | 1.01 | 0.955 | 0.827 | 0.863 | 0.939 | 0.8 | 0.777 | 0.728 | 0.695 | 0.675 | 0.723 | 0.713 | 0.625 | 0.835 | 0.83 | 0.841 | 0.849 | 0.66
NCI-H1792 | 0.995 | 0.89 | 0.912 | 0.536 | 1.03 | 1.08 | 0.858 | 0.956 | 0.907 | 0.624 | 0.538 |  | 0.505 | 0.468 | 0.414 | 0.39 |  | 0.44 | 0.246
NCI-H1915 | 1 | 0.974 | 0.959 | 0.911 | 0.847 | 0.982 | 0.865 | 0.885 | 0.845 | 0.249 | 0.263 | 0.235 | 0.271 | 0.231 | 0.251 | 0.236 | 0.261 | 0.218 | 0.238
NCI-H1944 | 0.748 | 0.828 | 0.843 | 0.613 | 1.14 | 1.16 | 0.985 | 1.01 | 0.827 | 0.42 | 0.437 | 0.467 | 0.355 | 0.372 | 0.387 | 0.411 | 0.361 | 0.373 | 0.344
NCI-H1975 | 0.906 | 0.938 | 0.801 | 0.727 | 0.925 | 1.03 | 0.991 | 0.933 | 0.915 | 0.356 | 0.412 | 0.357 | 0.377 | 0.284 | 0.734 | 0.755 | 0.766 | 0.883 | 0.793
NCI-H1993 | 0.881 | 0.767 | 0.749 | 0.745 |  | 0.678 | 0.759 | 0.735 | 0.728 | 0.526 | 0.586 | 0.613 | 0.5 | 0.468 | 0.777 | 0.973 | 0.911 | 0.968 | 0.736
NCI-H2009 | 1.03 | 0.997 | 0.834 | 0.666 | 1.07 | 1.14 | 0.972 | 1.06 | 0.979 | 0.41 | 0.374 | 0.346 | 0.39 | 0.336 | 0.701 | 0.81 | 0.698 | 0.673 | 0.647
NCI-H2023 | 0.737 | 0.989 | 0.828 | 0.372 | 0.618 | 0.514 | 0.563 | 0.6 | 0.446 | 0.232 | 0.193 | 0.199 | 0.206 | 0.225 | 0.473 | 0.51 | 0.416 | 0.44 | 0.366
NCI-H2085 | 0.76 | 0.794 | 0.735 | 0.693 | 0.703 | 0.906 | 0.951 | 0.865 | 0.882 | 0.555 | 0.491 | 0.587 | 0.544 | 0.449 | 0.769 | 0.913 | 0.79 | 0.764 | 0.849
NCI-H2087 | 1.07 | 1.08 | 0.842 | 0.702 | 1.06 | 1.13 | 0.812 | 0.993 | 0.979 | 0.229 | 0.307 | 0.258 | 0.236 | 0.25 | 0.543 | 0.548 | 0.513 | 0.515 | 0.435
NCI-H2126 | 0.77 | 0.756 | 0.765 | 0.701 | 0.993 | 1.04 | 0.991 | 1.01 | 0.974 | 0.563 | 0.641 | 0.523 | 0.501 | 0.475 | 0.944 | 0.917 | 0.759 | 0.912 | 0.828
NCI-H2170 | 0.263 | 0.27 | 0.245 | 0.259 | 1.18 | 1.2 | 1.01 | 1.12 | 0.836 | 0.439 | 0.498 | 0.417 | 0.481 | 0.369 | 0.683 | 0.697 | 0.55 | 0.552 | 0.385
NCI-H2347 | 0.957 | 0.907 | 0.793 | 0.659 | 0.626 | 0.626 | 0.582 | 0.648 | 0.588 | 0.599 | 0.631 | 0.564 | 0.671 | 0.645 | 0.614 | 0.628 | 0.518 | 0.541 | 0.538
NCI-H2405 | 1.1 | 1.16 | 0.971 | 0.778 | 0.831 | 0.86 | 0.782 | 0.81 | 0.838 | 0.683 | 0.752 | 0.695 | 0.719 | 0.653 | 0.806 | 0.837 | 0.813 | 0.813 | 0.891
NCI-H3122 | 0.982 | 0.965 | 0.879 | 0.746 | 0.264 | 0.246 | 0.241 | 0.254 | 0.285 | 0.457 | 0.362 | 0.351 | 0.431 | 0.315 | 0.691 | 0.677 | 0.615 | 0.608 | 0.691
